According to patent US20140309210A1, “INDAZOLE COMPOUNDS, COMPOSITIONS AND METHODS OF USE THEREOF” (Genentech, Inc., priority 2011, published 2014):

Target: T1, purified ITK (Invitrogen PV3875) (Homo sapiens, UniProt Q08881)
T1 construct: purchased Invitrogen PV3875
T1 sequence (Q08881 1-620): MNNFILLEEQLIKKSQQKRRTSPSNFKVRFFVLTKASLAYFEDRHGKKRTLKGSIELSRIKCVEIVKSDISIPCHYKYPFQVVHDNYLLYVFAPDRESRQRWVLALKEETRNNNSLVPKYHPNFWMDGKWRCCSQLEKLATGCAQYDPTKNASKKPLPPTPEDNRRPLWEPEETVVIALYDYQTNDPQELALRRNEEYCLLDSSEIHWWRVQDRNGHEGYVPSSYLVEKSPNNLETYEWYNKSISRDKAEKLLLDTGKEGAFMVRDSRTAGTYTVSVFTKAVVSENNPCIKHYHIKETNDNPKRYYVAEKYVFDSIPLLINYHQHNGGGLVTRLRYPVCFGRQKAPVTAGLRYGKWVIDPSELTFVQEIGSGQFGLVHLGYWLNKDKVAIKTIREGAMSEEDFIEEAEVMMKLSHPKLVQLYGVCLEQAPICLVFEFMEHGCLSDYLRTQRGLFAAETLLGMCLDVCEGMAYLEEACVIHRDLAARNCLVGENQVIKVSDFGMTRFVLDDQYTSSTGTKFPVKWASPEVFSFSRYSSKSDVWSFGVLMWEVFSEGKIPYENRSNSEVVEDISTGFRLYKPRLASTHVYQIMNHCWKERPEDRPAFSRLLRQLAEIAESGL
Assay: ITK peptide phosphorylation assay (Caliper LabChip or LCMS)
Type: biochemical
Method: The ability of purified ITK (Invitrogen PV3875) to catalyze peptide phosphorylation is monitored using a Caliper LabChip 3000 microfluidic unit (Caliper assay) or by liquid chromatography-mass spectrometry (LCMS) using a Waters Acquity system (LCMS assay). […] Reactions are quenched by the addition of 2,2′,2″,2′″-(ethane-1,2-diyldinitrilo)tetraacetic acid (50 mM final). Non-phosphorylated substrate and phosphorylated product peptides are separated and quantified using a Caliper LabChip 3000 instrument. […] Reactions are quenched by the addition of trichloroacetic acid (5% v/v final). Non-phosphorylated substrate and phosphorylated product peptides are separated by ultra performance LC and detected by a coupled triple quadrupole MS device applying multiple reaction monitoring (MRM) for quantification. The area of the MRM-extracted mass signal is used to assess the inhibition by test compounds. Equilibrium dissociation constant (Ki) values for ITK inhibitors are calculated from plots of activity vs. inhibitor concentration using Morrison's quadratic equation that accounts for the potential of tight binding, and by also applying the conversion factor that accounts for competitive inhibition and the concentration of ATP used in the assay relative to its apparent Michaelis constant (Km,app).

[1] = Table 2, Examples 1-140, class symbols
[2] = Table 3, specific values for certain examples

| Ki [1] | Ki [2] | Compound | Ki (Table 1, Examples 141-279) |
| --- | --- | --- | --- |
| 1 to 100 nM | 7.42 nM | O=C(Nc1cnn(Cc2cccc3cccnc23)c1)c1n[nH]c2cc(-c3cn[nH]c3)ccc12 [Example 9, 6-(1H-Pyrazol-4-yl)-1H-indazole-3-carboxylic acid (1-quinolin-8-ylmethyl-1H-pyrazol-4-yl)-amide] | – |
| 1 to 100 nM | – | COC(=O)c1cccc(Cn2cc(NC(=O)c3n[nH]c4cc(-c5cn[nH]c5)ccc34)cn2)c1 [Example 10, 3-(4-{[6-(1H-Pyrazol-4-yl)-1H-indazole-3-carbonyl]-amino}-pyrazol-1-ylmethyl)-benzoic acid methyl ester] | – |
| 1 to 100 nM | – | O=C(Nc1cnn(CCc2ccccc2)c1)c1n[nH]c2cc(-c3cn[nH]c3)ccc12 [Example 11, 6-(1H-Pyrazol-4-yl)-1H-indazole-3-carboxylic acid (1-phenethyl-1H-pyrazol-4-yl)-amide] | – |
| 0.01 to 1 nM | – | NC(=O)c1ccc(Cn2cc(NC(=O)c3n[nH]c4cc(-c5cn[nH]c5)ccc34)cn2)cc1 [Example 12, 6-(1H-Pyrazol-4-yl)-1H-indazole-3-carboxylic acid [1-(4-carbamoyl-benzyl)-1H-pyrazol-4-yl]-amide] | – |
| 1 to 100 nM | 2 nM | O=C(Nc1cnn(Cc2noc3ccccc23)c1)c1n[nH]c2cc(-c3cn[nH]c3)ccc12 [Example 14, 6-(1H-Pyrazol-4-yl)-1H-indazole-3-carboxylic acid (1-1,2-benzisoxazol-3-ylmethyl-1H-pyrazol-4-yl)-amide] | – |
| 1 to 100 nM | – | CNC(=O)c1ccc(Cn2cc(NC(=O)c3n[nH]c4cc(-c5cn[nH]c5)ccc34)cn2)o1 [Example 15, 6-(1H-Pyrazol-4-yl)-1H-indazole-3-carboxylic acid [1-(5-methylcarbamoyl-furan-2-ylmethyl)-1H-pyrazol-4-yl]-amid] | – |
| 1 to 100 nM | 6.9 nM | O=C(Nc1cnn(Cc2cc(-c3ccccc3)on2)c1)c1n[nH]c2cc(-c3cn[nH]c3)ccc12 [Example 16, 6-(1H-Pyrazol-4-yl)-1H-indazole-3-carboxylic acid [1-(5-phenyl-isoxazol-3-ylmethyl)-1H-pyrazol-4-yl]-amide] | – |
| 1 to 100 nM | 1.8 nM | O=C(Nc1cnn(Cc2nc3ccccc3s2)c1)c1n[nH]c2cc(-c3cn[nH]c3)ccc12 [Example 17, 6-(1H-Pyrazol-4-yl)-1H-indazole-3-carboxylic acid (1-benzothiazol-2-ylmethyl-1H-pyrazol-4-yl)-amide] | – |
| 1 to 100 nM | 2.3 nM | O=C(Nc1cnn(Cc2cn3ccccc3n2)c1)c1n[nH]c2cc(-c3cn[nH]c3)ccc12 [Example 19, 6-(1H-Pyrazol-4-yl)-1H-indazole-3-carboxylic acid (1-imidazo[1,2-a]pyridin-2-ylmethyl-1H-pyrazol-4-yl)-amide] | – |
| 1 to 100 nM | – | O=C(Nc1cnn(Cc2csc(-c3ccccc3)n2)c1)c1n[nH]c2cc(-c3cn[nH]c3)ccc12 [Example 20, 6-(1H-Pyrazol-4-yl)-1H-indazole-3-carboxylic acid [1-(2-phenyl-thiazol-4-ylmethyl)-1H-pyrazol-4-yl]-amide] | – |
| 1 to 100 nM | – | CC(C)c1nc(Cn2cc(NC(=O)c3n[nH]c4cc(-c5cn[nH]c5)ccc34)cn2)cs1 [Example 21, 6-(1H-Pyrazol-4-yl)-1H-indazole-3-carboxylic acid [1-(2-isopropyl-thiazol-4-ylmethyl)-1H-pyrazol-4-yl]-amide] | – |
| 1 to 100 nM | – | O=C(Nc1cnn(Cc2csc(-c3cccs3)n2)c1)c1n[nH]c2cc(-c3cn[nH]c3)ccc12 [Example 23, 6-(1H-Pyrazol-4-yl)-1H-indazole-3-carboxylic acid [1-(2-thiophen-2-yl-thiazol-4-ylmethyl)-1H-pyrazol-4-yl]-amide] | – |
| 0.01 to 1 nM | – | O=C(Nc1cnn(Cc2csc(-c3ccccn3)n2)c1)c1n[nH]c2cc(-c3cn[nH]c3)ccc12 [Example 24, 6-(1H-pyrazol-4-yl)-N-[1-[[2-(2-pyridyl)thiazol-4-yl]methyl]pyrazol-4-yl]-1H-indazole-3-carboxamide] | – |
| 1 to 100 nM | – | C#Cc1cccc(Cn2cc(NC(=O)c3n[nH]c4cc(-c5cn[nH]c5)ccc34)cn2)c1 [Example 25, N-[1-[(3-ethynylphenyl)methyl]pyrazol-4-yl]-6-(1H-pyrazol-4-yl)-1H-indazole-3-carboxamide] | – |
| 1 to 100 nM | – | O=C(Nc1cnn(Cc2cscn2)c1)c1n[nH]c2cc(-c3cn[nH]c3)ccc12 [Example 26, 6-(1H-Pyrazol-4-yl)-1H-indazole-3-carboxylic acid (1-thiazol-4-ylmethyl-1H-pyrazol-4-yl)-amide] | – |
| 0.01 to 1 nM | – | N#Cc1ccc(Cn2cc(NC(=O)c3n[nH]c4cc(-c5cn[nH]c5)ccc34)cn2)s1 [Example 27, 6-(1H-Pyrazol-4-yl)-1H-indazole-3-carboxylic acid [1-(5-cyano-thiophen-2-ylmethyl)-1H-pyrazol-4-yl]-amide] | – |
| 1 to 100 nM | – | Nc1cc(Cn2cc(NC(=O)c3n[nH]c4cc(-c5cn[nH]c5)ccc34)cn2)ccn1 [Example 28, 6-(1H-Pyrazol-4-yl)-1H-indazole-3-carboxylic acid [1-(2-amino-pyridin-4-ylmethyl)-1H-pyrazol-4-yl]-amide] | – |
| 0.01 to 1 nM | – | NC(=O)c1cccc(Cn2cc(NC(=O)c3n[nH]c4cc(-c5cn[nH]c5)ccc34)cn2)c1 [Example 29, 6-(1H-Pyrazol-4-yl)-1H-indazole-3-carboxylic acid [1-(3-carbamoyl-benzyl)-1H-pyrazol-4-yl]-amide] | – |

More lines, now with the values behind:

| Compound | Ki [1] | Ki [2] | Ki (Table 1, Examples 141-279) |
| --- | --- | --- | --- |
| 6-(6-methoxy-3- pyridyl)-N-[1-(3- pyridylmethyl)py- razol-4-yl]-1H- indazole-3- carboxamide [Example 244] | – | – | 32.3 nM |
| N#Cc1cccc(Cn2cc(NC(=O)c3n[nH]c4ccc(Cl)cc34)cn2)c1 [Example 1, 5-chloro-N-(1-(3-cyanobenzyl)-1H-pyrazol-4-yl)-1H-indazole-3-carboxamide] | 1 to 100 nM | 37.7 nM | – |
| Cc1ccc2[nH]nc(C(=O)Nc3cnn(Cc4cccc(C#N)c4)c3)c2c1 [Example 2, N-(1-(3-cyanobenzyl)-1H-pyrazol-4-yl)-5-methyl-1H-indazole-3-carboxamide] | 1 to 100 nM | 16.5 nM | – |
| N#Cc1cccc(Cn2cc(NC(=O)c3n[nH]c4cc(F)ccc34)cn2)c1 [Example 3, N-(1-(3-cyanobenzyl)-1H-pyrazol-4-yl)-6-fluoro-1H-indazole-3-carboxamide] | 1 to 100 nM | 18.5 nM | – |
| COc1cccc2[nH]nc(C(=O)Nc3cnn(Cc4cccc(C#N)c4)c3)c12 [Example 4, N-(1-(3-cyanobenzyl)-1H-pyrazol-4-yl)-4-methoxy-1H-indazole-3-carboxamide] | > 100 nM | 1300 nM | – |
| COc1cccc2c(C(=O)Nc3cnn(Cc4cccc(C#N)c4)c3)n[nH]c12 [Example 5, N-(1-(3-cyanobenzyl)-1H-pyrazol-4-yl)-7-methoxy-1H-indazole-3-carboxamide] | > 100 nM | > 3500 nM | – |
| COc1ccc2c(C(=O)Nc3cnn(Cc4cccc(C#N)c4)c3)n[nH]c2c1 [Example 6, N-(1-(3-cyanobenzyl)-1H-pyrazol-4-yl)-6-methoxy-1H-indazole-3-carboxamide] | 1 to 100 nM | – | – |
| N#Cc1cccc(Cn2cc(NC(=O)c3n[nH]c4ccc(F)cc34)cn2)c1 [Example 7, N-(1-(3-cyanobenzyl)-1H-pyrazol-4-yl)-5-fluoro-1H-indazole-3-carboxamide] | 1 to 100 nM | – | – |
| COc1ccc2[nH]nc(C(=O)Nc3cnn(Cc4cccc(C#N)c4)c3)c2c1 [Example 8, N-(1-(3-cyanobenzyl)-1H-pyrazol-4-yl)-5-methoxy-1H-indazole-3-carboxamide] | 1 to 100 nM | – | – |
| Cc1n[nH]c(C)c1CCn1cc(NC(=O)c2n[nH]c3cc(-c4cn[nH]c4)ccc23)cn1 [Example 13, 6-(1H-Pyrazol-4-yl)-1H-indazole-3-carboxylic acid {1-[2-(3,5-dimethyl-1H-pyrazol-4-yl)-ethyl]-1H-pyrazol-4-yl}-amide] | 1 to 100 nM | – | – |
| O=C(Nc1cnn(Cc2cc(CN3CCOCC3)on2)c1)c1n[nH]c2cc(-c3cn[nH]c3)ccc12 [Example 18, 6-(1H-Pyrazol-4-yl)-1H-indazole-3-carboxylic acid [1-(5-morpholin-4-ylmethyl-isoxazol-3-ylmethyl)-1H-pyrazol-4-yl]-amide] | 1 to 100 nM | – | – |
| O=C(Nc1cnn(Cc2cccc(C(=O)N3CCC(O)CC3)c2)c1)c1n[nH]c2cc(-c3cn[nH]c3)ccc12 [Example 22, 6-(1H-Pyrazol-4-yl)-1H-indazole-3-carboxylic acid {1-[3-(4-hydroxy-1-piperidine-1-carbonyl)-benzyl]-1H-pyrazol-4-yl}amide] | 1 to 100 nM | – | – |
